The record followed here is PMC10808981, “Synthesis and structure–activity relationships of aryl fluorosulfate-based inhibitors as novel antitubercular agents” (Bioorganic & Medicinal Chemistry Letters, 2024).

The subject of one data set is Mtb H37Rv. Kind of data set: MIC determination in Mtb H37Rv, Microdilution Alamar Blue Assay (MABA). Conditions: for MIC: Mtb H37Rv, MABA, 7 days. Format: cell-based, Mycobacterium tuberculosis.
A short description of data set [1]: HEK293T cytotoxicity assay (Cell Titer-Glo). Format: cell-based. The note with it: human, HEK293T cells; HEK293T, 3 days. How it is done:
HEK293T (ATCC) were grown in DMEM (Gibco Cat # 11965-092) supplemented with 10% heat-inactivated FBS, Pen Strep (Gibco) 1X in a 5% CO2 humidified atmosphere at 37◦C. Cells were washed once with DPBS 1X (Gibco), incubated for less than 5 minutes at room temperature in TrypLE solution (Gibco), washed once in propagation medium to remove trypsin, and counted with Trypan Blue. 5 µL of cell suspension ([…]) was dispensed into 1536-well plates containing serial 3-fold drug dilution ranging from 40 µM to 2 nM and incubated for 3 days in a 5% CO2 humidified atmosphere at 37 ◦C. Cell Titer-Glo® Luminescent Cell Viability Assay (Promega) reagent was diluted 1:1 with water and then 2 µL were added to plates. Luminescence was measured in a PHERAStar plate reader (BMG Labtech) and data normalized to negative control (DMSO) minus inhibitor (Puromycin 10 µM). Dose-response curves were fit using the Smart Fit function in Genedata Screener Analyzer (v16.0.8).
On the technique in general: ATP-based viability assays read luminescence as a measure of living cells.

A short description of a further data set: in vitro. Conditions: human.
The mark [2] stands for this setting: Mycobacterium tuberculosis, H37RV, 168 h.

Values after ≈ are worked out from the molar mass of the structure shown.

One may read the MIC as the lowest concentration found to suppress growth. A high value points to a need for much substance. In turn, `O=S(=O)(F)Oc1ccc(OCc2cc(F)c(-n3cncn3)c(F)c2)cc1` [Compound 3 g, 4-((3,5-difluoro-4-(1H-1,2,4-triazol-1-yl)benzyl)oxy)phenyl sulfurofluoridate] yielded an MIC in the data set on Mtb H37Rv (setting [2]) of 10 µM (≈ 3.85 µg/mL). The compound further registered a CC50 at 72 h in data set [1] of 34.8 µM. Moreover, in the data set “in vitro”, the CC50 is greater than 40 µM.
`O=S(=O)(F)Oc1ccc(OCc2cc(F)c(-n3cncn3)cc2F)cc1` [Compound 3 h, 4-((2,5-difluoro-4-(1H-1,2,4-triazol-1-yl)benzyl)oxy)phenyl sulfurofluoridate] came in with a minimal inhibitory concentration (MIC) in the data set with Mtb H37Rv (setting [2]) of 1.25 µM (≈ 0.482 µg/mL). For the same compound, the CC50 at 72 h was determined as 21.6 µM in data set [1] and 29.5 µM in the data set “in vitro”.
With `O=S(=O)(F)Oc1ccc(OCc2c(F)cc(-n3nccn3)cc2F)cc1` [Compound 3 k, 4-((2,6-difluoro-4-(2H-1,2,3-triazol-2-yl)benzyl)oxy)phenyl sulfurofluoridate], the MIC in the data set with Mtb H37Rv (setting [2]) stood at 1.23 µM (≈ 0.474 µg/mL). Further, the CC50 at 3 days in data set [1] is greater than 40 µM. The CC50 in the data set “in vitro” was greater than 40 µM.
Turning to `O=S(=O)(F)Oc1ccc(OCc2c(F)cc(-n3ccnn3)cc2F)cc1` [Compound 3 l, 4-((2,6-difluoro-4-(1H-1,2,3-triazol-1-yl)benzyl)oxy)phenyl sulfurofluoridate], the minimum inhibitory concentration (MIC) against Mtb H37Rv (setting [2]) was 0.16 µM (≈ 0.0617 µg/mL). In addition, the CC50 at 72 h in data set [1] came to 27.7 µM; in the data set “in vitro”, 17 µM.
`O=S(=O)(F)Oc1ccc(OCc2ccc(-n3cncn3)c(F)c2)cc1` [Compound 3e, 4-((3-fluoro-4-(1H-1,2,4-triazol-1-yl)benzyl)oxy)phenyl sulfurofluoridate] came in with a minimum inhibitory concentration (MIC) against Mtb H37Rv (setting [2]) of 2.5 µM (≈ 0.918 µg/mL). Moreover, the CC50 at 72 h in data set [1] came out at 16.8 µM; in the data set “in vitro”, 17.6 µM.
Take `O=S(=O)(F)Oc1ccc(OCc2ccc(-n3cncn3)c(F)c2F)cc1` [Compound 3f, 4-((2,3-difluoro-4-(1H-1,2,4-triazol-1-yl)benzyl)oxy)phenyl sulfurofluoridate]: the MIC with Mtb H37Rv (setting [2]) amounted to 1.25 µM (≈ 0.482 µg/mL). The figures for the CC50 at 72 h (in data set [1]; in the data set “in vitro”) were 18.8 µM and 22.4 µM, respectively.
For the compound `N#Cc1cc(-n2cncn2)cc(F)c1COc1ccc(OS(=O)(=O)F)cc1` [Compound 3j, 4-((2-cyano-6-fluoro-4-(1H-1,2,4-triazol-1-yl)benzyl)oxy)phenyl sulfurofluoridate], the MIC with Mtb H37Rv and with Mtb H37Rv (setting [2]) was 5 µM (≈ 1.96 µg/mL) throughout. The CC50 at 3 days in data set [1] was greater than 40 µM. The compound further showed a CC50 in “in vitro” greater than 40 µM.
In the case of `O=S(=O)(F)Oc1ccc(OCc2c(F)cc(-n3cnnn3)cc2F)cc1` [Compound 19 g, 4-((2,6-difluoro-4-(1H-tetrazol-1-yl)benzyl)oxy)phenyl sulfurofluoridate], the minimum inhibitory concentration (MIC) against Mtb H37Rv (setting [2]) worked out at 0.45 µM (≈ 0.174 µg/mL). For the same compound, the CC50 at 72 h in data set [1] stood at 13.2 µM; in “in vitro” it was 12.1 µM.
In turn, `O=S(=O)(F)Oc1ccc(OCc2c(F)cc(-c3nnn[nH]3)cc2F)cc1` [Compound 19 h, 4-((2,6-difluoro-4-(1H-tetrazol-5-yl)benzyl)oxy)phenyl sulfurofluoridate] returned an MIC with Mtb H37Rv (setting [2]) of 5 µM (≈ 1.93 µg/mL). Moreover, in data set [1], the CC50 at 3 days is greater than 40 µM. This compound also displayed a CC50 in “in vitro” greater than 40 µM.
Take `O=S(=O)(F)Oc1ccc(OCc2c(F)cc(-c3nnc[nH]3)cc2F)cc1` [Compound 19a, 4-((2,6-difluoro-4-(1H-1,2,4-triazol-3-yl)benzyl)oxy)phenylsulfurofluoridate]: the MIC with Mtb H37Rv was 0.9 µM (≈ 0.347 µg/mL); against Mtb H37Rv (setting [2]), less than 1 µM. The CC50 at 72 h is 14.7 µM in data set [1] and 19.3 µM in “in vitro”.
In the data set on Mtb H37Rv (setting [2]), `Cn1cnc(-c2cc(F)c(COc3ccc(OS(=O)(=O)F)cc3)c(F)c2)n1` [Compound 19b, 4-((2,6-difluoro-4-(1-methyl-1H-1,2,4-triazol-3-yl)benzyl)oxy)phenyl sulfurofluoridate] registered a minimum inhibitory concentration (MIC) of 1.25 µM (≈ 0.499 µg/mL). Moreover, the CC50 in the data set “in vitro” was greater than 40 µM.
Regarding `O=S(=O)(F)Oc1ccc(OCc2c(F)cc(-c3ccn[nH]3)cc2F)cc1` [Compound 19c, 4-((2,6-difluoro-4-(1H-pyrazol-5-yl)benzyl)oxy)phenyl sulfurofluoridate], the MIC with Mtb H37Rv (setting [2]) was determined as 0.84 µM (≈ 0.323 µg/mL). Also, the figures for the CC50 at 72 h (in data set [1]; in “in vitro”) were 31.7 µM and 18.5 µM, respectively.
Take `O=S(=O)(F)Oc1ccc(OCc2c(F)cc(-c3ncc[nH]3)cc2F)cc1` [Compound 19d, 4-((2,6-difluoro-4-(1H-imidazol-2-yl)benzyl)oxy)phenyl sulfurofluoridate]: inhibition of growth with Mtb H37Rv (setting [2]) (MIC) required 0.3 µM (≈ 0.115 µg/mL). Also, the CC50 at 3 days in data set [1] is greater than 40 µM. Besides, the CC50 at 72 h in “in vitro” is 30.1 µM.
The compound `Cn1ccnc1-c1cc(F)c(COc2ccc(OS(=O)(=O)F)cc2)c(F)c1` [Compound 19e, 4-((2,6-difluoro-4-(1-methyl-1H-imidazol-2-yl)benzyl)oxy)phenyl sulfurofluoridate] registered a minimal inhibitory concentration (MIC) against Mtb H37Rv (setting [2]) of 1.25 µM (≈ 0.498 µg/mL). Also, the CC50 at 72 h in data set [1] amounted to 26 µM; in “in vitro”, 13.7 µM.
In the case of `O=S(=O)(F)Oc1ccc(OCc2c(F)cc(-n3ccnc3)cc2F)cc1` [Compound 19f, 4-((2,6-difluoro-4-(1H-imidazol-1-yl)benzyl)oxy)phenyl sulfurofluoridate], 0.37 µM (≈ 0.142 µg/mL) was the least that counted as inhibitory against Mtb H37Rv (setting [2]) (MIC). In data set [1], this compound returned a CC50 at 72 h of 9.65 µM and a CC50 at 3 days of less than 10 µM. In the data set “in vitro”, this compound registered a CC50 of less than 10 µM and a CC50 at 72 h of 8.63 µM.
`O=S(=O)(F)Oc1ccc(OCc2c(F)cc(-c3ncon3)cc2F)cc1` [Compound 19i, 4-((2,6-difluoro-4-(1,2,4-oxadiazol-3-yl)benzyl)oxy)phenyl sulfurofluoridate]: the minimal inhibitory concentration (MIC) in the data set with Mtb H37Rv was 0.62 µM (≈ 0.24 µg/mL); in the data set on Mtb H37Rv (setting [2]), less than 1 µM. Besides, the CC50 at 3 days in data set [1] is greater than 40 µM. Also, in “in vitro”, the CC50 is greater than 40 µM.
Take `O=S(=O)(F)Oc1ccc(OCc2c(F)cc(-c3cnoc3)cc2F)cc1` [Compound 19j, 4-((2,6-difluoro-4-(isoxazol-4-yl)benzyl)oxy)phenyl sulfurofluoridate]: the MIC against Mtb H37Rv is 0.78 µM (≈ 0.301 µg/mL); with Mtb H37Rv (setting [2]) it was less than 1 µM. For the same compound, the CC50 at 72 h in data set [1] stood at 23.8 µM; in the data set “in vitro” it was 6.99 µM.
As for `N#Cc1ncn(-c2cc(F)c(COc3ccc(OS(=O)(=O)F)cc3)c(F)c2)n1` [Compound 20 g, 4-((4-(3-cyano-1H-1,2,4-triazol-1-yl)-2,6-difluorobenzyl)oxy)phenyl sulfurofluoridate], the minimum inhibitory concentration (MIC) against Mtb H37Rv (setting [2]) came out at 0.45 µM (≈ 0.185 µg/mL). The CC50 at 72 h in the data set “in vitro” was found to be 10.3 µM.
Turning to `NC(=O)c1ncn(-c2cc(F)c(COc3ccc(OS(=O)(=O)F)cc3)c(F)c2)n1` [Compound 20 k, 4-((4-(3-carbamoyl-1H-1,2,4-triazol-1-yl)-2,6-difluorobenzyl)oxy)phenyl sulfurofluoridate], the MIC against Mtb H37Rv (setting [2]) was 0.17 µM (≈ 0.0728 µg/mL). This compound also gave a CC50 at 3 days in data set [1] greater than 40 µM. For the same compound, the CC50 in “in vitro” is greater than 40 µM.
`NS(=O)(=O)c1ncn(-c2cc(F)c(COc3ccc(OS(=O)(=O)F)cc3)c(F)c2)n1` [Compound 20 l, 4-((2,6-difluoro-4-(3-sulfamoyl-1H-1,2,4-triazol-1-yl)benzyl)oxy)phenyl sulfurofluoridate] had an MIC in the data set with Mtb H37Rv (setting [2]) of 0.47 µM (≈ 0.218 µg/mL). Also, in “in vitro”, the CC50 was greater than 40 µM.
In the case of `Cc1ncn(-c2cc(F)c(COc3ccc(OS(=O)(=O)F)cc3)c(F)c2)n1` [Compound 20a, 4-((2,6-difluoro-4-(3-methyl-1H-1,2,4-triazol-1-yl)benzyl)oxy)phenyl sulfurofluoridate], 0.3 µM (≈ 0.12 µg/mL) was the least that counted as inhibitory in the data set with Mtb H37Rv (setting [2]) (MIC). In addition, the CC50 at 72 h in data set [1] is 17.1 µM; in the data set “in vitro” it was 16.3 µM.
On to `CCc1ncn(-c2cc(F)c(COc3ccc(OS(=O)(=O)F)cc3)c(F)c2)n1` [Compound 20b, 4-((4-(3-ethyl-1H-1,2,4-triazol-1-yl)-2,6-difluorobenzyl)oxy)phenyl sulfurofluoridate], for which the MIC in the data set on Mtb H37Rv (setting [2]) amounted to 0.6 µM (≈ 0.248 µg/mL). This compound also registered a CC50 at 3 days in data set [1] greater than 40 µM. This compound also gave a CC50 at 72 h in “in vitro” of 5.8 µM.
Regarding `CC(C)c1ncn(-c2cc(F)c(COc3ccc(OS(=O)(=O)F)cc3)c(F)c2)n1` [Compound 20c, 4-((2,6-difluoro-4-(3-isopropyl-1H-1,2,4-triazol-1-yl)benzyl)oxy)phenyl sulfurofluoridate], in the data set on Mtb H37Rv (setting [2]), the MIC came to 0.6 µM (≈ 0.256 µg/mL). For the same compound, the figures for the CC50 at 72 h (in data set [1]; in “in vitro”) were 16.7 µM and 12.4 µM, respectively.
For `CC(C)(C)c1ncn(-c2cc(F)c(COc3ccc(OS(=O)(=O)F)cc3)c(F)c2)n1` [Compound 20d, 4-((4-(3-(tert-butyl)-1H-1,2,4-triazol-1-yl)-2,6-difluorobenzyl)oxy)phenyl sulfurofluoridate] the same measures were 1.2 µM (≈ 0.53 µg/mL), 13.7 µM and 6.9 µM.
As to `CS(=O)(=O)Nc1ncn(-c2cc(F)c(COc3ccc(O)cc3)c(F)c2)n1` [Compound 21 g], in the data set on Mtb H37Rv, the “anti-TB activity against Mtb (in words)” value is on record as “no activity” and the MIC was greater than 10 µM.
`CN(c1ncn(-c2cc(F)c(COc3ccc(OS(=O)(=O)F)cc3)c(F)c2)n1)S(C)(=O)=O` [Compound 21c, 4-((2,6-difluoro-4-(3-(N-methylmethylsulfonamido)-1H-1,2,4-triazol-1-yl)benzyl)oxy)phenyl sulfurofluoridate]: it took 0.31 µM (≈ 0.153 µg/mL) to inhibit growth in the data set with Mtb H37Rv (setting [2]) (MIC). In “in vitro”, the CC50 at 72 h turned out to be 15.3 µM.
The compound `CCS(=O)(=O)Nc1ncn(-c2cc(F)c(COc3ccc(OS(=O)(=O)F)cc3)c(F)c2)n1` [Compound 21d, 4-((4-(3-(ethylsulfonamido)-1H-1,2,4-triazol-1-yl)-2,6-difluorobenzyl)oxy)phenyl sulfurofluoridate] registered an MIC in the data set on Mtb H37Rv (setting [2]) of 0.08 µM (≈ 0.0394 µg/mL). Moreover, the CC50 in “in vitro” is greater than 40 µM.
